Each structure is given as a SMILES string. Several values for one entry are separate records, joined by “and”; a condition that tells them apart may be missing. Equal values may be shown once. Bridge positions count the residues as written; N and C are the ends. Square brackets hold non-standard residues; d marks the D form. Peptide text beside a SMILES is read from it. * marks the point of attachment. Hydrocinnamoyl = O=C(CCc1ccccc1)*; dCha = N[C@H](CC1CCCCC1)C(=O)O; Orn = NCCC[C@H](N)C(=O)O

One data set in a line: in vivo. The settings on record: male, C57BL/6 J, mouse, iv, 1 mg/kg.
A short description of data set [1]: Gastric environment stability (gastric lavage fluid and gastric homogenate). The settings on record: 1 µg/ml, 37 °C, up to 60 min.
Procedure: The gastric stability of analytes was performed using gastric contents of wild-type mice with free access to food and water overnight (i.e. modelling physiological conditions). […] The stomach was clamped and removed from the abdominal cavity, and the stomach cavity was repeatedly lavaged with sterile saline (5 ml in total) and the lavage fluid collected and combined. The stomach tissue was then homogenized with an equal volume of milliQ water. Lavage fluid and stomach homogenate were centrifuged (400 × g, 30 min at 4 °C) and the supernatant was collected and stored on ice. A solution of C5aR1 antagonist (1 µg/ml) were incubated at 37 °C for up to 60 minutes in gastric lavage fluid and gastric homogenate supernatant, and samples (n = 4) were quenched at regular time intervals by the addition of ice-cold acetonitrile. Samples were processed as described earlier for the quantitative determination of unchanged analytes along with an internal standard.
The nature of data set [2]: Intravenous pharmacokinetics in mice (plasma, brain, spinal cord; LC-MS/MS, non-compartmental analysis). The settings on record: for MRT inf: MRT 0-inf_obs.
Procedure: (§1) The validity of the developed bioanalytical LC-MS/MS method was assessed by quantitative determination of C5aR1 antagonist levels in mice plasma and tissue following i.v. drug administration. All experimental procedures and animal care were performed following approval from the University of Queensland Animal Care and Use Committee and conducted in accordance with the National Health and Medical Research Council of Australia policies and guidelines for the care and use of animals for scientific purposes. C57BL/6 J mice (males, 10–12 weeks old) were purchased from Animal Resources Centre, Western Australia. An i.v. dose of 1 mg/kg was selected based upon previous pharmacokinetic studies in rat and in vivo efficacy studies in mice[6],[28]. After overnight fasting, mice (n = 4 per time point) were anaesthetized with zolazapam (50 mg/kg) and xylazine (12 mg/kg) via i.p. injection. […] Blood samples were collected via cardiac puncture at 2.5 min, 5 min, 10 min, 15 min, 30 min, 45 min, 60 min and 90 minutes in tubes containing EDTA followed by plasma separation by centrifugation at 1500 × g at 4 °C. Plasma samples were stored at −80 °C for further processing and analysis. Mice were immediately perfused transcardially with sterile saline to remove circulating drug from the blood vasculature. Whole brain and spinal cord samples were obtained and homogenized in an equal weight-volume of milliQ water. […] Pharmacokinetics data analysis was performed using Pharsight WINNONLIN software (version 6.4) by a non-compartmental analysis method to obtain various pharmacokinetic parameters.
Data set [3] can be described thus: Plasma stability, incubation at 37 °C. The settings on record: mouse plasma, 1 µg/ml, up to 60 min.
Procedure: (§2) Plasma and serum stability was determined by incubation experiments. For plasma stability, whole blood was collected via cardiac puncture from anaesthetized wild-type mice in tubes containing EDTA, and plasma was extracted by centrifuging blood for 15 min at 1500 × g at 4 °C. […] Samples (n = 4) were quenched at regular intervals of 5 min, 10 min, 15 min, 30 min and 60 min by stopping the reaction with the addition of ice cold acetonitrile, and processed as described earlier for quantitative determination of unchanged analytes. For serum stability, whole blood was collected via cardiac puncture from anaesthetized wild-type mice in tubes and kept on ice until completely clotted. Serum was collected by centrifuging clotted blood for 15 min at 1500 × g at 4 °C. […] Briefly, on the day of analysis, samples were deproteinized with 1:3 ice cold acetonitrile and spiked with 10 µl of 100 ng/ml internal standard. Samples were vortexed, centrifuged and supernatants were dried by vacuum concentration at room temperature. Dried samples were reconstituted in 50 µl of 75% methanol and analysed using LC-MS/MS. The stability the C5aR1 antagonists were expressed as a percentage of the concentration detected at different time points in comparison to the concentration detected immediately following addition of antagonists i.e. at t = 0 min.
A short description of data set [4]: Serum stability, incubation at 37 °C. The settings on record: mouse serum, 1 µg/ml, up to 60 min.
Procedure: as §2
A short description of data set [5]: Intestinal environment stability (intestinal washing and intestinal homogenate). The settings on record: 1 µg/ml, 37 °C, up to 60 min.
Procedure: Likewise gastric environment stability, intestinal stability of analytes was performed using intestinal contents of wild-type mice with free access to food and water overnight. Mice were anaesthetized and euthanized by cervical dislocation. The small intestine was clamped and removed from the abdominal cavity. The intestine was repeatedly lavaged with sterile saline (5 ml in total) and intestinal washings were collected and combined. The intestine was also homogenized with an equal volume of milliQ water. Intestinal lavage and intestinal homogenates were centrifuged (400 × g, 30 min at 4 °C) and the supernatant was collected and stored on ice. A solution of C5aR1 antagonist (1 µg/ml) was incubated at 37 °C for up to 60 minutes in intestinal lavage and intestinal homogenate supernatants, and samples (n = 4) were collected at regular time intervals by the addition of ice-cold acetonitrile. Samples were processed as described earlier for quantitative determination of unchanged analytes along with internal standard.
Where [6] appears, read: brain, single i.v. 1 mg/kg, mice.
[7] abbreviates: male, C57BL/6 J, mouse, brain, iv, 1 mg/kg, single i.v. 1 mg/kg, mice.
Where [8] appears, read: male, C57BL/6 J, mouse, plasma, iv, 1 mg/kg.
[9] abbreviates: male, C57BL/6 J, mouse, plasma, iv, 1 mg/kg, single i.v. 1 mg/kg, mice.
[10] abbreviates: male, C57BL/6 J, mouse, spinal cord, iv, 1 mg/kg, single i.v. 1 mg/kg, mice.
Where [11] appears, read: spinal cord, single i.v. 1 mg/kg, mice.

Procedure for in vivo: as §1

In “in vivo”, `CC(=O)N[C@@H](Cc1ccccc1)C(=O)N[C@H]1CCCNC(=O)[C@H](CCCNC(=N)N)NC(=O)[C@H](Cc2c[nH]c3ccccc23)NC(=O)[C@@H](CC2CCCCC2)NC(=O)[C@@H]2CCCN2C1=O` [PMX53, Ac-Phe-[Orn-Pro-dCha-Trp-Arg]] showed a total exposure AUC(0-inf) of 3830 ng·h/mL, an AUC(0-t) of 3410 ng·h/mL and a clearance of 0.18 mL/min. In “in vivo” (Cmax), this compound returned a Cmax of 11900 ng/mL. This compound had a Vd in the data set “in vivo” (Vss_obs) of 0.00328 L. For the same compound, the Vd in “in vivo” (Vz_obs) worked out at 0.00826 L.
Turning to `N=C(N)NCCC[C@@H]1NC(=O)[C@H](Cc2c[nH]c3ccccc23)NC(=O)[C@@H](CC2CCCCC2)NC(=O)[C@@H]2CCCN2C(=O)[C@@H](NC(=O)CCc2ccccc2)CCCNC1=O` [PMX205, hydrocinnamate-[Orn-Pro-dCha-Trp-Arg]] (Hydrocinnamoyl-[Orn]P[dCha]WR; lactam 1-C), in data set [1] (mouse gastric homogenates), the “stability in gastric homogenates (unchanged form, % of t = 0 min)” value was determined as 6.7 ± 4.2%. For the same compound, the “stability in gastric lavage (unchanged form, % of t = 0 min)” value in data set [1] (mouse gastric lavage fluid) was < 25% and 23.3 ± 1.7%. Also, the results for the “AUC 0-inf_obs” value in data set [2] (setting [6]) and in data set [2] (setting [11]) were 12.18 µg·min/g and 17.42 µg·min/g, respectively. The Cl_obs in data set [2] (setting [6]) was 2.46 g/min; in data set [2] (setting [11]), 1.722 g/min. Also, the results for the Vss_obs in data set [2] (setting [6]) and in data set [2] (setting [11]) were 553.84 g and 257.98 g, respectively. Moreover, the Vz_obs in data set [2] (setting [6]) worked out at 572.84 g; in data set [2] (setting [11]) it was 265.65 g. In addition, the “AUC(0-t)” value in data set [2] (brain, t = 90 min, single i.v. 1 mg/kg, mice) was 4.18 µg·min/g; in data set [2] (setting [8]) it was 5800 ng·h/mL; in data set [2] (spinal cord, t = 90 min, single i.v. 1 mg/kg, mice), 7.95 µg·min/g. Moreover, the peak concentration (Cmax) in data set [2] (setting [7]) came to 108 ng/g; in data set [2] (setting [9]), 29000 ng/mL; in data set [2] (setting [10]), 213 ng/g. Moreover, the MRT inf in data set [2] (setting [7]) is 3.75 h; in data set [2] (setting [9]), 0.15 h; in data set [2] (setting [10]), 2.49 h. In addition, the half-life is 2.69 h in data set [2] (male, C57BL/6 J, mouse, brain, iv, 1 mg/kg, t1/2, brain, single i.v. 1 mg/kg, mice); 0.17 h in data set [2] (male, C57BL/6 J, mouse, plasma, iv, 1 mg/kg, t1/2, plasma, single i.v. 1 mg/kg, mice); 1.78 h in data set [2] (male, C57BL/6 J, mouse, spinal cord, iv, 1 mg/kg, t1/2, spinal cord, single i.v. 1 mg/kg, mice). In data set [2] (setting [8]), this compound had an AUC(0-inf) of 5810 ng·h/mL. Besides, the clearance in data set [2] (setting [8]) amounted to 0.086 mL/min. The distribution volume (Vd) is 0.00079 L in data set [2] (male, C57BL/6 J, mouse, plasma, iv, 1 mg/kg, Vss_obs, plasma, single i.v. 1 mg/kg, mice) and 0.00132 L in data set [2] (male, C57BL/6 J, mouse, plasma, iv, 1 mg/kg, Vz_obs, single i.v. 1 mg/kg, mice). In addition, in data set [3], the “stability in plasma (percentage of concentration detected vs t = 0 min)” value was 91.4 ± 3.1%. Further, the “stability in serum (percentage of concentration detected vs t = 0 min)” value in data set [4] came to 91.4 ± 1.4%. Also, the “stability in intestinal homogenates (unchanged form)” value in data set [5] (mouse intestinal homogenates) is “greater than 35%”. Besides, in data set [5] (mouse intestinal washing), the “stability in intestinal washing (unchanged form)” value is “more than 85%”.

As usually defined, the AUC(0-inf) is total exposure, with the tail of the curve extrapolated. Read a high AUC(0-inf) as high exposure. As usually defined, the clearance is a measure of how efficiently the substance is removed, as volume per time. High values mean efficient removal, low ones inefficient removal. One may read the Cmax as the maximum level reached in the sampled fluid or tissue. In general, Vd refers to the apparent volume that relates the amount in the body to the concentration in plasma or blood. Broadly, the MRT inf is the average time that molecules of a dose stay in the body. As a reminder, the half-life is the time needed for the level to fall by half in the phase considered. High values mean slow loss, low ones fast loss.

These data come from article PMC5970165, “Development and validation of a LC-MS/MS assay for pharmacokinetic studies of complement C5a receptor antagonists PMX53 and PMX205 in mice” (Scientific Reports, 2018).
